Reference: patent US5475010A, “7'-amino-naphthazarin antibiotic derivatives” (Gruppo Lepetit S.p.A., priority 1991, dated 1995)
≈ marks a conversion by molar mass, not a printed value. Structures can show the parent of a compound that is named as a salt. Where two headings read alike, the source gives them in different places.

Experiments:
Type in all cases: cell-based
[1] = test system: Staphilococcus aureus Tour; assay: MIC by broth microdilution, Staphylococcus aureus Tour; conditions: Iso-Sensitest broth, 37° C., 20-24 h, air
[2] = test system: Pseudomonas aeruginosa ATCC 10145; assay: MIC by broth microdilution, Pseudomonas aeruginosa; conditions: ATCC10145, Table 2, internal code 4, approx. 10^4 cfu/ml, Iso-Sensitest broth, 37° C., 20-24 h, air
[3] = test system: Streptococcus pyogenes C 203; assay: MIC by broth microdilution, Streptococcus pyogenes; conditions: C203
[4] = test system: Proteus vulgaris X19H ATCC 881; assay: MIC by broth microdilution, Proteus vulgaris; conditions: ATCC881
[5] = test system: Staphilococcus epidermidis ATCC 12228; assay: MIC by broth microdilution, Staphylococcus epidermidis
[6] = test system: Propionibacterium acnes ATCC 6919; assay: MIC by broth microdilution, Propionibacterium acnes; conditions: Cutibacterium acnes
[7] = test system: Streptococcus pneumonieae UC 41; assay: MIC by broth microdilution, Streptococcus pneumoniae
[8] = test system: Bacteroides fragiles ATCC 9689; assay: MIC by broth microdilution, Bacteroides fragilis; conditions: ATCC9689, Table 2, internal code 1010, approx. 10^4 cfu/ml, Wilkins-Chalgren broth, 37° C., 48 h, N2-CO2-H2 (80:10:10)
[9] = test system: Staphilococcus haemolyticus (clin. isolate); assay: MIC by broth microdilution, Staphylococcus haemolyticus
[10] = test system: Escherichia coli SKF 12140; assay: MIC by broth microdilution, Escherichia coli
[11] = test system: Enterococcus faecalis ATCC 7080; assay: MIC by broth microdilution, Enterococcus faecalis
[12] = test system: Tricophyton mentagrophytes; assay: MIC by broth microdilution, Trichophyton mentagrophytes; conditions: 72 h
[13] = test system: Clostridium perfringens ISS 30543; assay: microbe, parasite or virus in culture; conditions: ISS30543, 48 h
[14] = test system: Candida albicans SKF 2270; assay: MIC by broth microdilution, Candida albicans; conditions: Table 2; internal code 145; approx. 10^4 cfu/ml; buffered Yeast Nitrogen Base broth + glucose + L-asparagine; 37° C., 20-24 h, air
[15] = test system: Neisseria gonorrhoeae ISM 68/126; assay: MIC by broth microdilution, Neisseria gonorrhoeae; conditions: ISM68/126, Table 2, internal code 997, approx. 10^4 cfu/ml, GC Base broth + 1% IsoVitaleX, 37° C., 48 h, 5% CO2
[16] = Table 2, internal code 165, + 30% bovine serum
[17] = Table 2, internal code 165, inoculum 10^6 cfu/ml
[18] = Table 2, internal code 165, inoculum approx. 10^4 cfu/ml
[19] = ATCC6919, Table 2, internal code 1014, approx. 10^4 cfu/ml, Wilkins-Chalgren broth, 37° C., 48 h, N2-CO2-H2 (80:10:10), read-out: MIC
[20] = Table 2, internal code 165, + 30% bovine serum, read-out: MIC
[21] = Table 2, internal code 634, 1% (v/v) suspension of mycelia and conidia, YM broth, 30° C., air, read-out: MIC
[22] = UC41, Table 2, internal code 44, approx. 10^4 cfu/ml, Todd Hewitt broth, 37° C., 20-24 h, air, read-out: MIC

Compound: COC(=O)c1cc2cc3c(c(O)c2c(=O)o1)OC1(Cc2c(O)c4c(c(O)c2O1)C(=O)C(N)=CC4=O)CC3O (stereo not shown) [Example 25, 7'-Aminopurpuromycin]
- MIC [1, 16]: 1 µg/mL
- MIC [1, 17]: 0.06 µg/mL (≈ 0.115 µM)
- MIC [1, 18]: 0.03 µg/mL (≈ 0.0573 µM)
- MIC [2]: > 128 µg/mL
- MIC [3]: 0.03 µg/mL (≈ 0.0573 µM)
- MIC [4]: > 128 µg/mL
- MIC ([5]; ATCC12228): 0.03 µg/mL (≈ 0.0573 µM)
- MIC [6, 19]: 0.008 µg/mL (≈ 0.0153 µM)
- MIC ([7]; UC41): 0.016 µg/mL (≈ 0.0306 µM)
- MIC [8]: 0.06 µg/mL (≈ 0.115 µM)
- MIC [9]: 0.06 µg/mL (≈ 0.115 µM)
- MIC ([10]; SKF12140): > 128 µg/mL
- MIC ([11]; ATCC7080): 0.06 µg/mL (≈ 0.115 µM)

Compound: CCNC1=CC(=O)c2c(O)c3c(c(O)c2C1=O)OC1(C3)CC(O)c2cc3cc(C(=O)OC)oc(=O)c3c(O)c2O1 (stereo not shown) [Example 10, 7'-ethylamino purpuromycin]
- MIC [1, 20]: 1 µg/mL
- MIC [1, 17]: 0.06 µg/mL (≈ 0.109 µM)
- MIC [1, 18]: 0.06 µg/mL (≈ 0.109 µM)
- MIC [2]: > 128 µg/mL
- MIC [3]: 0.06 µg/mL (≈ 0.109 µM)
- MIC [4]: > 128 µg/mL
- MIC ([5]; ATCC12228): 0.06 µg/mL (≈ 0.109 µM)
- MIC ([6]; ATCC6919, 48 h): 0.06 µg/mL (≈ 0.109 µM)
- MIC ([7]; UC41): 0.06 µg/mL (≈ 0.109 µM)
- MIC [8]: 0.06 µg/mL (≈ 0.109 µM)
- MIC [9]: 0.06 µg/mL (≈ 0.109 µM)
- MIC ([10]; SKF12140): > 128 µg/mL
- MIC ([11]; ATCC7080): 0.06 µg/mL (≈ 0.109 µM)
- MIC [12, 21]: ≤ 0.13 µg/mL

Compound: CNC1=CC(=O)c2c(O)c3c(c(O)c2C1=O)OC1(CCc2cc4cc(C(=O)OC)oc(=O)c4c(O)c2O1)C3 (stereo not shown) [Example 32, 7'-methylamino γ-rubromycin]
- MIC [1, 16]: 0.25 µg/mL
- MIC [1, 17]: 0.03 µg/mL (≈ 0.0575 µM)
- MIC [1, 18]: 0.016 µg/mL (≈ 0.0307 µM)
- MIC [2]: > 128 µg/mL
- MIC [3]: 0.03 µg/mL (≈ 0.0575 µM)
- MIC [4]: > 128 µg/mL
- MIC ([5]; ATCC12228): 0.016 µg/mL (≈ 0.0307 µM)
- MIC [6, 19]: 0.004 µg/mL (≈ 0.00767 µM)
- MIC ([7]; UC41): 0.016 µg/mL (≈ 0.0307 µM)
- MIC [8]: 0.06 µg/mL (≈ 0.115 µM)
- MIC [9]: 0.016 µg/mL (≈ 0.0307 µM)
- MIC ([10]; SKF12140): > 128 µg/mL
- MIC ([11]; ATCC7080): 0.03 µg/mL (≈ 0.0575 µM)
- MIC [12]: > 128 µg/mL
- MIC [13]: 0.016 µg/mL (≈ 0.0307 µM)

Compound: COC(=O)c1cc2cc3c(c(O)c2c(=O)o1)OC1(CC3)Cc2c(O)c3c(c(O)c2O1)C(=O)C(N)=CC3=O (stereo not shown) [Example 30, 7'-Amino-γ-rubromycin]
- MIC [1, 16]: 1 µg/mL
- MIC [1, 18]: 0.016 µg/mL (≈ 0.0315 µM)
- MIC [2]: > 128 µg/mL
- MIC [3]: 0.03 µg/mL (≈ 0.0591 µM)
- MIC [4]: > 128 µg/mL
- MIC ([5]; ATCC12228): 0.016 µg/mL (≈ 0.0315 µM)
- MIC [14]: 16 µg/mL
- MIC ([6]; ATCC6919, 48 h): 0.016 µg/mL (≈ 0.0315 µM)
- MIC ([7]; UC41): 0.016 µg/mL (≈ 0.0315 µM)
- MIC [8]: 0.06 µg/mL (≈ 0.118 µM)
- MIC [9]: 0.016 µg/mL (≈ 0.0315 µM)
- MIC ([10]; SKF12140): > 128 µg/mL
- MIC ([11]; ATCC7080): 0.03 µg/mL (≈ 0.0591 µM)
- MIC [12, 21]: 16 µg/mL (≈ 31.5 µM)

Compound: COC(=O)c1cc2cc3c(c(O)c2c(=O)o1)OC1(Cc2c(O)c4c(c(O)c2O1)C(=O)C(NCc1ccccc1)=CC4=O)CC3O (stereo not shown) [Example 8]
- MIC [1, 20]: 32 µg/mL
- MIC [1, 17]: 1 µg/mL (≈ 1.63 µM)
- MIC [1, 18]: 0.5 µg/mL (≈ 0.815 µM)
- MIC [2]: > 128 µg/mL
- MIC [3]: 1 µg/mL (≈ 1.63 µM)
- MIC [4]: > 128 µg/mL
- MIC ([5]; ATCC12228, Table 2, internal code 147, approx. 10^4 cfu/ml, Iso-Sensitest broth, 37° C., 20-24 h, air, read-out: MIC): 0.13 µg/mL (≈ 0.212 µM)
- MIC [15]: 0.25 µg/mL
- MIC [7, 22]: 0.06 µg/mL (≈ 0.0978 µM)
- MIC ([9]; Table 2, internal code 602, approx. 10^4 cfu/ml, Iso-Sensitest broth, 37° C., 20-24 h, air, read-out: MIC): 0.13 µg/mL (≈ 0.212 µM)
- MIC ([10]; SKF12140): > 128 µg/mL
- MIC ([11]; ATCC7080, Table 2, internal code 149, approx. 10^4 cfu/ml, Iso-Sensitest broth, 37° C., 20-24 h, air, read-out: MIC): 4 µg/mL (≈ 6.52 µM)
- MIC [12]: > 128 µg/mL

Compound: COC(=O)c1cc2cc3c(c(O)c2c(=O)o1)OC1(Cc2c(O)c4c(c(O)c2O1)C(=O)C(NCCN(C)C)=CC4=O)CC3O (stereo not shown) [Example 6, 7'-(2-dimethylaminoethylen)amino purpuromycin hydrochloride]
- MIC [1, 20]: 0.25 µg/mL
- MIC [2]: 128 µg/mL
- MIC [4]: 128 µg/mL
- MIC [14]: 64 µg/mL
- MIC [6, 19]: 0.06 µg/mL
- MIC [7, 22]: 0.06 µg/mL
- MIC [8]: 0.5 µg/mL
- MIC [9]: 0.5 µg/mL
- MIC ([10]; SKF12140, Table 2, internal code 47, approx. 10^4 cfu/ml, Iso-Sensitest broth, 37° C., 20-24 h, air, read-out: MIC): 16 µg/mL
- MIC [12]: 128 µg/mL
